Our source for the IC50 values is patent US20240316017A1, “NOVEL PYRIDINE DERIVATIVE COMPOUND AS RON INHIBITOR” (LG CHEM, LTD., priority 2021, published 2024).

A value given as a limit tells only on which side of the number the result lay.

One test concerns the target RON (Homo sapiens, UniProt Q04912). In words: Evaluation of inhibitory activity against RON (TR-FRET kinase assay). Conditions: RON protein, ULight-labeled Poly GT substrate. Format: biochemical. On the procedure:
In order to measure the inhibitory activity of each of the compounds of Examples against RON, the IC50 of each of the compounds was measured using Time-resolved fluorescence energy transfer (TR-FRET).
Specifically, the compound was prepared to a concentration of 1 mM in 100% DMSO and was diluted 10 times in a stepwise manner through 3-fold dilution. The compound (2 ul) diluted in a stepwise manner was added to a 96-well-plate containing 48 ul of a 1× kinase reaction buffer (50 mM HEPES (pH 7.4), 0.01% Tween-20, 5 mM DTT, 0.5 mM Na3VO4, 2 mM EGTA, 10 mM MgCl2).
The RON protein was diluted to a concentration of 49.3 nM in a RON storage buffer (50 mM Tris-HCl (pH 7.5), 150 mM NaCl, 0.5 mM EDTA, 0.02% Triton X-100), and then diluted again to a concentration of 0.4 nM in a 1×kinase reaction buffer. As a substrate cocktail, a RON-specific substrate mixed solution (40 uM ULight-labeled Poly GT, 100 nM ATP) was prepared at a concentration 2 times the final reaction concentration.
(§1) Thereafter, a 384-well-plate was prepared, and 2.5 μl of each of the diluted compounds of Examples was added to a corresponding well of experimental group wells, and 2.5 μl of a 4% DMSO solution was dispensed into high control wells and low control wells.
(§2) Thereafter, 2.5 μL of 0.4 nM RON was dispensed into each of the high control wells and the experimental group wells, and 2.5 μL of the 1× kinase reaction buffer was added to the low control wells, and all the wells were centrifuged at room temperature for 40 seconds at 1,000 RPM, and then incubated at room temperature for 20-30 minutes. Then, 5 uL of the substrate cocktail (2×) was dispensed into each well, and all the wells were centrifuged at room temperature for 40 seconds at 1,000 RPM, and then incubated at room temperature for 60 minutes. Thereafter, 5 uL of 30 mM EDTA was added to each well to terminate the reaction, and all the wells were then incubated again at room temperature for 5 minutes. Thereafter, 5 uL of a 4× phosphotyrosine antibody (Perkin Elmer) containing europium was added to each well, and all the wells were then incubated at room temperature for 60 minutes. After the incubation, the 384-well-plate was read with the Vison plate reader. In this case, the excitation wavelength was 340 nm, and the emission wavelength was 620 nm and 665 nm. The IC50 value of each compound of Examples was derived using the GraphPd Prism7 program.

Another test has as its target cMET (Homo sapiens, UniProt P08581). In words: Evaluation of inhibitory activity against MET (TR-FRET kinase assay). Conditions: cMET protein, TK peptide substrate. Format: biochemical. On the procedure:
In addition, in order to measure the enzyme activity inhibition for cMET, the evaluation was performed in the same manner as the enzyme activity inhibition measurement experiment for RON.
Specifically, the compound was prepared to a concentration of 1 mM in 100% DMSO and was diluted 10 times in a stepwise manner through 3-fold dilution. The compound (2 ul) diluted in a stepwise manner was added to a 96-well-plate containing 48 ul of a 1× kinase reaction buffer (50 mM HEPES (pH 7.4), 0.05% BSA, 0.005% Tween-20, 1 mM DTT, 0.5 mM MnCl2, 20 mM MgCl2).
The cMET protein was diluted to a concentration of 263 nM in a cMET storage buffer (50 mM Tris-HCl (pH 7.5), 150 mM NaCl, 0.05% Brij35, 1 mM DTT, 10% Glycerol), and then diluted again to a concentration of 2 nM in a 1× kinase reaction buffer. As a substrate cocktail, a MET-specific substrate mixed solution (5 uM TK peptide, 10 mM ATP) was prepared at a concentration 2 times the final reaction concentration.
as §1
as §2, with “of 2” for “of 0.4”, “nM cMET” for “nM RON”, “the 1×kinase” for “the 1× kinase”, “of 90” for “of 30”

Sequence of RON (Q04912 25-1400, species assumed): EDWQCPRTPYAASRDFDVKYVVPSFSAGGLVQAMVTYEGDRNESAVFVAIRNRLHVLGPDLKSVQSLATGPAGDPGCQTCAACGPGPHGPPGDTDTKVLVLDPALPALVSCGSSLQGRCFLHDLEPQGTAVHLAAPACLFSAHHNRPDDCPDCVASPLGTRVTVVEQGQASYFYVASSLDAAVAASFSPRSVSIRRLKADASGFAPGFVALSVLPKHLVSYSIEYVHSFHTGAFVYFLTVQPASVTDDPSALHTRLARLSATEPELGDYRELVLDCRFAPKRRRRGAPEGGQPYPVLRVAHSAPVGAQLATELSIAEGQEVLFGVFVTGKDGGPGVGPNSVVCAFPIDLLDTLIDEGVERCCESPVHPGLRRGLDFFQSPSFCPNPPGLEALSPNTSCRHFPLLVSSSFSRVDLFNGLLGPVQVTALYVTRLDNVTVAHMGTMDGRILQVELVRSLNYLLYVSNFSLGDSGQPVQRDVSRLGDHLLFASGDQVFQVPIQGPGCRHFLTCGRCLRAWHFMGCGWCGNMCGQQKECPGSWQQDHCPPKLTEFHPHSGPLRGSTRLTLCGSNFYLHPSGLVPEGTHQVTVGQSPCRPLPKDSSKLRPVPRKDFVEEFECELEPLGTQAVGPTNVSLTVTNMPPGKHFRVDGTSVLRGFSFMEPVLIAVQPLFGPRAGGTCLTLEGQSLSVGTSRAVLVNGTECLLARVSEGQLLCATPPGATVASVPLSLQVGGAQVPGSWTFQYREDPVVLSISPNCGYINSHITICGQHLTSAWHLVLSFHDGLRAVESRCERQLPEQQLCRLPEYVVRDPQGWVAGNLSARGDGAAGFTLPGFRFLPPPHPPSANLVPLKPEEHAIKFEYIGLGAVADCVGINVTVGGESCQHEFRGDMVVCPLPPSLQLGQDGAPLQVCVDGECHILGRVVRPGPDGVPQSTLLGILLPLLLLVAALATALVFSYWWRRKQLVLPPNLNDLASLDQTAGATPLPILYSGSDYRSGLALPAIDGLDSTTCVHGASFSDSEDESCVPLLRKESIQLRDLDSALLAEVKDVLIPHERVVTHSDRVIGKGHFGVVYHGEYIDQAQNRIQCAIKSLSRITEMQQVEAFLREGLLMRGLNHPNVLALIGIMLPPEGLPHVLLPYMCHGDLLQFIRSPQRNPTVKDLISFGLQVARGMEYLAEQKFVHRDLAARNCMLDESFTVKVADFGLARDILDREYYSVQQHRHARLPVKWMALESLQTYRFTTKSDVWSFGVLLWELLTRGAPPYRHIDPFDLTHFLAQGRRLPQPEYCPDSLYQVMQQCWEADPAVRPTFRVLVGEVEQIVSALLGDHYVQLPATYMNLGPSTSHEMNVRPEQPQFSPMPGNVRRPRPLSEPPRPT
Sequence of cMET (P08581 25-1390): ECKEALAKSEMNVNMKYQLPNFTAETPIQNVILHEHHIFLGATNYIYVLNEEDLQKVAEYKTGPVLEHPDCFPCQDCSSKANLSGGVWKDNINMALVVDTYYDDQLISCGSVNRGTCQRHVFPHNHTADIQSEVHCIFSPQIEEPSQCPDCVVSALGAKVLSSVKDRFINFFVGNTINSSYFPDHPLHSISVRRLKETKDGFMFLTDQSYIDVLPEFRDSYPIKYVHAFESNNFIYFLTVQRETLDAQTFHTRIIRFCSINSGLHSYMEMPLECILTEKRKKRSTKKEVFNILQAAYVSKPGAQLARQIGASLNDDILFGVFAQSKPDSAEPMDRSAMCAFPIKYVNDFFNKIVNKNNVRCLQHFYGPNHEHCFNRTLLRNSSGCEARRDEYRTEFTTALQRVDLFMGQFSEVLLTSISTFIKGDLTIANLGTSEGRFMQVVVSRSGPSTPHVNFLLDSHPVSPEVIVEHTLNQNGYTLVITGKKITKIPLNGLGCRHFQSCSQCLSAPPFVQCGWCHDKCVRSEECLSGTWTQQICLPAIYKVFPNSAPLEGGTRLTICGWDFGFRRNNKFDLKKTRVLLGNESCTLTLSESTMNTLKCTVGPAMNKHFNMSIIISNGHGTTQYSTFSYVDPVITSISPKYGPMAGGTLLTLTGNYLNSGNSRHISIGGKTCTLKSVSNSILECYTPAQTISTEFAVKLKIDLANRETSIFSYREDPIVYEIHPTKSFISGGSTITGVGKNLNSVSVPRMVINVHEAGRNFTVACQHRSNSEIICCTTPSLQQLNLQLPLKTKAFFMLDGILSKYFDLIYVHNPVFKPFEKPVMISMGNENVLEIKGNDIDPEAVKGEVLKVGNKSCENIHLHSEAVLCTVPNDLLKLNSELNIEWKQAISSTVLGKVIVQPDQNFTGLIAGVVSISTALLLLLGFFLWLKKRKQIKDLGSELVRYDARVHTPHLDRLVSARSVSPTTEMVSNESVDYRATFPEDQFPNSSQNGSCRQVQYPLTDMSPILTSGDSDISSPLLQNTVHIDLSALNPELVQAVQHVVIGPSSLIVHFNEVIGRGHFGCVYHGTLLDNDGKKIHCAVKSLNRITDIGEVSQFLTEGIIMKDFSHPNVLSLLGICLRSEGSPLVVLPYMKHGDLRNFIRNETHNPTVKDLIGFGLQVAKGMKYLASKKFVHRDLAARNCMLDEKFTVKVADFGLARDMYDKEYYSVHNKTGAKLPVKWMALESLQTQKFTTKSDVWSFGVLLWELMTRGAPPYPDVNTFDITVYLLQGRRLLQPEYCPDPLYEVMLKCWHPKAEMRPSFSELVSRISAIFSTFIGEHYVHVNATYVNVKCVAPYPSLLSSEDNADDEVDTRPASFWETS

Take `C=CC(=O)Nc1nccc(Oc2ccc(NC(=O)c3ncn(-c4ccccc4)c3C(F)(F)F)cc2F)c1Cl` [Example 21]: the results for the IC50 on RON and on cMET were 50 to 500 nM and more than 5 µM, respectively.
For `C=CC(=O)N(C(=O)C=C)c1nccc(Oc2ccc(NC(=O)c3ncn(-c4ccccc4)c3C(F)(F)F)cc2F)c1Cl` [Example 22] the same measures were 50 to 500 nM and more than 5 µM.
With `O=C(Nc1ccc(Oc2ccnc(NC(=O)C3CC3)c2Cl)c(F)c1)c1ncn(-c2ccccc2)c1C(F)(F)F` [Example 23], the half-inhibitory concentration (IC50) (in general, the concentration that inhibits the measured activity by half) against RON was 50 to 500 nM; on cMET, more than 5 µM.
For `O=C(Nc1ccc(Oc2ccnc(Cl)c2)c(F)c1)c1ncn(-c2ccccc2)c1C(F)(F)F` [Example 24] the same measures were more than 5000 nM and more than 5 µM.
For `Nc1cc(Oc2ccc(NC(=O)c3ncn(-c4ccccc4)c3C(F)(F)F)cc2F)ccn1` [Example 25] the same measures were 50 to 500 nM and more than 5 µM.
With `O=C(Nc1ccc(Oc2ccnc(NC(=O)C3CC3)c2)c(F)c1)c1ncn(-c2ccccc2)c1C(F)(F)F` [Example 26, N-(4-((2-cyclopropanecarboxamido)pyridin-4-yl)oxy-3-fluorophenyl)-1-phenyl-5-(trifluoromethyl)-1H-imidazole-4-carboxamide], the concentration for half-maximal inhibition (IC50) is 50 to 500 nM against RON and more than 5 µM at cMET.
For `Nc1nccc(Oc2ccc(NC(=O)c3ncn(-c4ccccc4)c3C(F)(F)F)cc2F)c1N` [Example 27] the same measures were 50 to 500 nM and more than 5 µM.
The matching figures for `Nc1nccc(Oc2ccc(NC(=O)c3cnn(-c4ccccc4)c3C(F)(F)F)cc2F)c1N` [Example 28]: 50 to 500 nM and more than 5 µM.
Consider `Nc1nccc(Oc2ccc(NC(=O)c3ncn(-c4ccccc4)c3C(F)(F)F)cc2F)c1I` [Example 29, N-(4-((2-amino-3-iodopyridin-4-yl)oxy)-3-fluorophenyl)-1-phenyl-5-(trifluoromethyl)-1H-imidazole-4-carboxamide], for which the half-maximal inhibitory concentration (IC50) against RON is less than 50 nM; on cMET, 0.5 to 5 µM.
For `Nc1nccc(Oc2ccc(NC(=O)c3cnc(-c4ccccc4)s3)cc2F)c1Cl` [Example 30, N-(4-((2-amino-3-chloropyridin-4-yl)oxy)-3-fluorophenyl)-2-phenylthiazole-5-carboxamide] the same measures were 50 to 500 nM and more than 5 µM.
The matching figures for `Cc1nc(-c2ccccc2)sc1C(=O)Nc1ccc(Oc2ccnc(N)c2Cl)c(F)c1` [Example 31, N-(4-((2-amino-3-chloropyridin-4-yl)oxy)-3-fluorophenyl)-4-methyl-2-phenylthiazole-5-carboxamide]: 500 to 5000 nM and more than 5 µM.
The matching figures for `Nc1nccc(Oc2ccc(NC(=O)c3ncc(-c4ccccc4)s3)cc2F)c1Cl` [Example 32, N-(4-((2-amino-3-chloropyridin-4-yl)oxy)-3-fluorophenyl)-5-phenylthiazole-2-carboxamide]: 500 to 5000 nM and more than 5 µM.
Turning to `Nc1nccc(Oc2ccc(NC(=O)c3ccc(-c4ccccc4)s3)cc2F)c1Cl` [Example 33, N-(4-((2-amino-3-chloropyridin-4-yl)oxy)-3-fluorophenyl)-5-phenylthiophene-2-carboxamide], the IC50 against RON was 50 to 500 nM; on cMET, more than 5 µM.
The matching figures for `CCOC(=O)Nc1c(Oc2ccc(NC(=O)c3cnn(-c4ccccc4)c3C(F)(F)F)cc2F)ccnc1N` [Example 34, Ethyl(2-amino-4-(2-fluoro-4-(1-phenyl-5-(trifluoromethyl)-1H-pyrazole-4-carboxamido)phenoxy)pyridin-3-yl)carbamate]: 50 to 500 nM and more than 5 µM.
For `CCOC(=O)N(c1c(Oc2ccc(NC(=O)c3cnn(-c4ccccc4)c3CC)cc2F)ccnc1N)C(C)C` [Example 35, Ethyl(2-amino-4-(4-(5-ethyl-1-phenyl-1H-pyrazole-4-carboxamido)-2-fluorophenoxy)pyridin-3-yl)(isopropyl)carbamate] the same measures were 500 to 5000 nM and more than 5 µM.
The matching figures for `Nc1nccc(Oc2ccc(NC(=O)c3cnn(-c4ccccc4Cl)c3C(F)(F)F)cc2F)c1Cl` [Example 36, N-(4-((2-amino-3-chloropyridin-4-yl)oxy)-3-fluorophenyl)-1-(2-chlorophenyl)-5-(trifluoromethyl)-1H-pyrazole-4-carboxamide]: 50 to 500 nM and 0.5 to 5 µM.
Take `Nc1nccc(Oc2ccc(NC(=O)c3cnn(-c4c(F)cccc4F)c3C(F)(F)F)cc2F)c1Cl` [Example 37, N-(4-((2-amino-3-chloropyridin-4-yl)oxy)-3-fluorophenyl)-1-(2,6-difluorophenyl)-5-(trifluoromethyl)-1H-pyrazole-4-carboxamide]: the half-maximal inhibitory concentration (IC50) against RON was less than 50 nM; at cMET, 0.5 to 5 µM.
The matching figures for `Nc1nccc(Oc2ccc(NC(=O)c3onc(-c4ccccc4)c3C(F)(F)F)cc2F)c1Cl` [Example 38, N-(4-((2-amino-3-chloropyridin-4-yl)oxy)-3-fluorophenyl)-3-phenyl-4-(trifluoromethyl)isoxazole-5-carboxamide]: 50 to 500 nM and more than 5 µM.
For `Nc1nccc(Oc2ccc(NC(=O)c3ccn(-c4ccccc4)n3)cc2F)c1Cl` [Example 39, N-(4-((2-amino-3-chloropyridin-4-yl)oxy)-3-fluorophenyl)-1-phenyl-1H-pyrazole-3-carboxamide] the same measures were 500 to 5000 nM and 0.5 to 5 µM.
In the case of `Nc1nccc(Oc2ccc(NC(=O)c3cn(-c4ccccc4)nn3)cc2F)c1Cl` [Example 40, N-(4-((2-amino-3-chloropyridin-4-yl)oxy)-3-fluorophenyl)-1-phenyl-1H-1,2,3-triazole-4-carboxamide], the IC50 on RON was more than 5000 nM; against cMET, more than 5 µM.
With `Cc1c(C(=O)Nc2ccc(Oc3ccnc(N)c3Cl)c(F)c2)nnn1-c1ccccc1` [Example 41, N-(4-((2-amino-3-chloropyridin-4-yl)oxy)-3-fluorophenyl)-5-methyl-1-phenyl-1H-1,2,3-triazole-4-carboxamide], the IC50 on RON was 50 to 500 nM; on cMET it was more than 5 µM.
For `Cc1c(C(=O)Nc2ccc(Oc3ccnc(N)c3Cl)c(F)c2)nnn1-c1ccccc1F` [Example 42, N-(4-((2-amino-3-chloropyridin-4-yl)oxy)-3-fluorophenyl)-1-(2-fluorophenyl)-5-methyl-1H-1,2,3-triazole-4-carboxamide] the same measures were 50 to 500 nM and 0.5 to 5 µM.
`Nc1nccc(Oc2ccc(NC(=O)c3cnn(-c4ccccc4)c3C(F)(F)F)cc2F)c1I` [Example 43, N-(4-((2-amino-3-iodopyridin-4-yl)oxy)-3-fluorophenyl)-1-phenyl-5-(trifluoromethyl)-1H-pyrazole-4-carboxamide]: the IC50 was less than 50 nM against RON and more than 5 µM against cMET.
